Laboratory results taken from patent publication US12570606B2, “Myeloperoxidase imaging agents” (The General Hospital Corporation, priority 2016, dated 2026).

Key:
[1] = molecular target: T1, MPO (Mus musculus, UniProt P11247); assay: CFA paw inflammation PET imaging and treatment by MPO inhibitor PF-1355; assay type: in vivo; parameters: from tissue; host or cells: inflamed forepaw of living mice (CFA); details: forepaw, 24 h after CFA emulsion, scan 2 h after tracer
T1 sequence (P11247 139-718): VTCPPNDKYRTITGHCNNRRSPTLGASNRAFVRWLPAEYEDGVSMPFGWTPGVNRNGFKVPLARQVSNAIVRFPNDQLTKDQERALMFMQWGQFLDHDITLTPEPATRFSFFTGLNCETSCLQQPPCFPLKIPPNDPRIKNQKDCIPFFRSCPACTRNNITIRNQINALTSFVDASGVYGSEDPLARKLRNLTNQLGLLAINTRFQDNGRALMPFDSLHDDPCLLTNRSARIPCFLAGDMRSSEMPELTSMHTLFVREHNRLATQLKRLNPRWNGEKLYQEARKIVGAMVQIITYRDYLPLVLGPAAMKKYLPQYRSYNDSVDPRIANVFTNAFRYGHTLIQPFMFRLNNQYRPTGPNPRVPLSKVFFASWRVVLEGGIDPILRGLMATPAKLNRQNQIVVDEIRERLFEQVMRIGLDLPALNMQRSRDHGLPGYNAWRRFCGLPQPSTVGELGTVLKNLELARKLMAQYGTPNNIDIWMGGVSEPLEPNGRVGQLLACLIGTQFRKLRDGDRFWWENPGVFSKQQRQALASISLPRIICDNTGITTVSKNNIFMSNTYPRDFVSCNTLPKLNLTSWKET
Description: Each pair contained one treated and one untreated, number of pairs, n=3. The 1/1 emulsion of CFA/PBS (40 μL) was injected subcutaneously on the dorsal side of one forepaw under isoflurane anesthesia, and PBS (40 μL) was injected on the other forepaw as control. After 1 h, the treated group was given PF-1355 (50 mg/kg) by gavage, then treated every 6 h for another 3 times, and the control group was treated with vehicle (10 mL/kg) accordingly. After 24 h, 300-600 uCi of Compound 9 was injected intravenously. After another 2 h, each pair of the mice was scanned side by side.
After validating the efficacy of the MPO Compound 9 in matrigel experiments, the specificity of the agent in inflammation was investigated. Complete Freund's Adjuvant (CFA) or its emulsion can cause inflammation when injected subcutaneously to the animal. The CFA emulsion was injected to one dorsal side of the forepaw of the mouse and the other side was injected with PBS. After 24 h, Compound 9 was injected intravenously and scanned 2 h after injection. […] To further verify the specificity of the MPO Compound 9, the mice were treated with MPO inhibitor PF-1355 1 h after CFA emulsion injection and continuously every 6 h afterwards for 4 times before injecting the Compound 9. The control group was treated with vehicle after CFA injection. Then each pair of the mice from treated and untreated groups were scanned.

[2] = Stability of Compound 9 formulated for injection at room temperature; assay type: physicochemical
Description: Radiolabeling chemistry was performed using automated synthesis of the following steps: (1) azeotropic drying of [^18F]-fluoride; (2) [^18F]-fluorination; (3) Boc deprotection; and (4) HPLC purification, followed by solid-phase formulation of the final product. The synthesis module was operated in the following sequences with numerical references to FIG. 1. Automated syntheses were performed on a Synthra (Hamburg, Germany) model RN Plus automated synthesizer module. Boc-deprotection was conducted with 0.4 mmol aqueous HCl at 95° C. added directly to the labeling reaction mixture without any prior purification. The two-step synthesis can be finished in approximately 80 min with the total radiochemical yield of 47% after decay correction. • 1. [^18F]-Fluoride, received from PETNET (Waltham, Mass.), was produced by the ^18O(p,n)^18F nuclear reaction and delivered to the reagent vial A (A) of the radiosynthesis module via syringe after mixing with tetrabutylammonium bicarbonate ([…], 75 mM in H2O, 250 μL) and acetonitrile (MeCN, 300 μL). • 2. Automated synthesis began with the addition the [^18F]-fluoride/TBAB mixture (A) and MeCN (B) to the reaction vessel 1 (RV1). • 3. […] The eluent was monitored by UV (λ=254 nm) and radiochemical detectors connected in series. • 8. […]

PET signal of CFA side versus vehicle (PBS) injected side [1]: 4 fold
Time stable on storage ([2]; 0.5% (w/v) aqueous sodium-ascorbate in saline): at least 4 h
Stability on storage ([2]; 1×PBS for injection): degraded over time
Compound: O=C(Cc1c[nH]c2ccc(O)cc12)NC(Cc1c[nH]c2ccc(O)cc12)C(=O)NCCOCCOCC[18F] (stereo not drawn) [Compound 9]
